Test results published in patent US20170081323A1 (priority 2015, published 2017).
Read-outs that look alike come from different tables or passages of the source.

Tested on: influenza A virus (IAV) A/Aichi/2/68 (H3N2)
Assay: microbe, parasite or virus in culture
Format: cell-based, influenza A virus A/Aichi/2/68 (H3N2) on MDCK cells
Conditions: H3N2, MDCK, 48 h

Row | SMILES | IC50 (read-out: CPE) [µM] | IC50 (read-out: CPE IC50) [µM]
1 | O=c1[nH]nc2c(-c3ccccc3)cccn12 | > 50 | –
2 | O=c1[nH]nc2ccc(-c3ccccc3)cn12 | > 50 | –
3 | O=c1[nH]nc2cc(-c3ccccc3)ccn12 | > 50 | –
4 | O=c1[nH]nc2ccc(-c3ccccc3Cl)c(Oc3ccccc3)n12 | > 50 | –
5 | O=c1[nH]nc2ccc(-c3ccccc3Cl)cn12 | > 50 | –
6 | O=c1[nH]nc2cccc(C#CC3CC3)n12 | > 50 | –
7 | O=c1[nH]nc2ccc(-c3ccc(-c4ccccc4)cc3)cn12 | > 50 | –
8 | O=c1[nH]nc2ccc(-c3ccccc3-c3cccc(F)c3)cn12 | > 50 | –
9 | O=C1NNC2CCCC(CCC3CC3)N12 (centres unmarked) | > 50 | –
10 | O=c1[nH]nc2ccc(-c3ccccc3-c3ccncc3)cn12 | > 50 | –
11 | O=c1[nH]nc2ccc(-c3ccccc3)c(OCC3CC3)n12 | > 50 | –
12 | O=c1[nH]nc2ccc(-c3cccc(F)c3F)cn12 | > 50 | –
13 | O=c1[nH]nc2ccc(Br)c(Oc3ccccc3)n12 | > 50 | –
14 | O=c1[nH]nc2ccc(-c3cccc(-c4ccccc4)c3)cn12 | > 50 | –
15 | O=c1[nH]nc2ccc(-c3ccc(Cl)cc3)cn12 | > 50 | –
16 | Cc1ccc(C)c(-c2ccc3n[nH]c(=O)n3c2)c1 | > 50 | –
17 | O=c1[nH]nc2ccc(-c3cccc(-c4c(F)cccc4F)c3)cn12 | – | 34.9
18 | COc1ccc(-c2ccc3n[nH]c(=O)n3c2)c(Cl)c1 | > 50 | –
19 | O=c1[nH]nc2ccc(Oc3ccccc3)cn12 | > 50 | –
20 | O=c1[nH]nc2ccc(-c3ccccc3Cl)c(OCC3CC3)n12 | > 50 | –
21 | O=c1[nH]nc2ccc(-c3cccc4ccccc34)cn12 | > 50 | –
22 | O=c1[nH]nc2ccc(-c3ccccc3-c3ccccc3)cn12 | > 50 | –
23 | O=c1[nH]nc2cccc(-c3ccccc3)n12 | > 50 | –
24 | O=c1[nH]nc2ccc(-c3cccc(F)c3)cn12 | > 50 | –
25 | O=c1[nH]nc2cccc(-c3ncccn3)n12 | > 50 | –
26 | O=c1[nH]nc2ccc(-c3cccc(Cl)c3)cn12 | > 50 | –
27 | O=c1[nH]nc2n1C(OCC1CC1)CCC2 (centres unmarked) | > 50 | –
28 | O=c1[nH]nc2cccc(Oc3ccccc3)n12 | > 50 | –
29 | O=c1[nH]nc2ccc(Br)cn12 | > 50 | –
